Results as given in patent US20150094294A1, “COMPOUNDS AND METHODS FOR TREATING MALARIA” (Cellceutix Corporation, priority 2012, published 2015).
Converted amounts (≈) assume the structure as drawn.

Legend:
Type in all cases: cell-based
[1] = tested on: P. falciparum 3D7 (chloroquine-sensitive); assay: Anti-malarial activity, P. falciparum 3D7 culture, 72 hour, DNA content by flow cytometry; settings: synchronized ring-stage parasites
In short: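 Magnet-synchronized ring-stage parasites in RPMI 1640/Albumax II were plated at 0.5% parasitemia, 4% final hematocrit, with compound added as 2× dilutions (2.5 μM to 20 nM) for 72 h. Fixed, Triton-permeabilized cells were stained with SYTOX Green (5 μM final), and DNA content was measured by flow cytometry to derive IC50.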

[2] = Cytotoxicity against HepG2 cells; settings: human, HepG2 cells; read-out: Cytotoxicity HepG2 EC50
[3] = Cytotoxicity against 3T3 cells; settings: mouse, 3T3 cells; read-out: Cytotoxicity 3T3 EC50
in vitro = assay: in vitro
[4] = tested on: P. falciparum DD2 (chloroquine-resistant); assay: Anti-malarial activity, P. falciparum DD2 culture, 72 hour, DNA content by flow cytometry; settings: synchronized ring-stage parasites
Experimental: Numerous compounds were screened in cultures of the malaria parasite P. falciparum 3D7 (chloroquine-sensitive) and DD2 (chloroquine-resistant). The compounds were also screened for toxixcity against 3T3 cells, HepG2 cells, and in a hemolysis assay. In brief, P. falciparum parasites were cultured in RPMI 1640 (Invitrogen) supplemented with Albumax II (Invitrogen). For synchronization, schizont stage parasites were magnet purified using a SuperMACS™ II Cell Separation Unit (Miltenyi Biotech). For IC50 determinations, synchronized ring-stage parasites were plated at 0.5% parasitemia and 8% hematocrit in 96-well plates at a total volume of 50 μL. Serial dilutions of 2× concentration of the respective compound, ranging from 2.5 μM to 20 nM, were added to the wells to bring the total volume up to 100 μL and 4% hematocrit. Compounds were assayed for a 72 hour period, after which the cultures were fixed with a solution of 4% paraformaldehyde and 0.08% glutaraldhyde in PBS. The cells were then permeabilized with 0.25% Triton X-100, and SYTOX Green Nucleic Acid Stain (Invitrogen) in PBS was added to a final concentration of 5 μM. DNA content, as an indicator of parasitemia, was analyzed on an Accuri C6 Flow Cytometer with C-Sampler. IC50 curves were generated using GraphPad Prism (GraphPad Software).

[5] = Plasmodium falciparum, 3D7, 72 h

Structure (SMILES) | IC50 [1, 5] | EC50 [2] | EC50 [3] | EC50 (in vitro) | IC50 ([4]; Plasmodium falciparum) | IC50 [1] | IC50 [4]
N=C(N)NCCCc1cccc(-c2ccc3c4ccc(-c5cccc(CCCNC(=N)N)c5)cc4n(CCCNC(=N)N)c3c2)c1 [Compound 155] | 272 nM | 100 µM | 131 µM | 6 µg/mL (≈ 9.73 µM) | 457 nM |  | 
N=C(N)NCCN1CCc2ccc(NC(=O)c3cc(C(=O)Nc4ccc5c(c4)CCN(CCNC(=N)N)CC5)ncn3)cc2CC1 [Compound 150] |  | 157 µM | 168 µM | 197 µg/mL (≈ 314 µM) | 530 nM |  | 
FC(F)(F)c1cc(NC2CCNCC2)ccc1Oc1ccc(Oc2ccc(NC3CCCNC3)cc2C(F)(F)F)cc1 (stereo not drawn) [Compound 165] | 904 nM |  |  | 16 µg/mL (≈ 26.9 µM) | 1180 nM |  | 
CC(C)(C)c1cc(NC(=O)c2cccc(C(=O)Nc3cc(C(C)(C)C)cc(NC(=O)C(N)Cc4ccccc4)c3SCCN)c2)c(SCCN)c(NC(=O)C(N)Cc2ccccc2)c1 (stereo not drawn) [Compound 109] |  |  |  |  |  | 438 nM | 601 nM
N=C(N)NCCCCC(=O)Nc1ccc(Oc2cccc(Oc3ccc(NC(=O)CCCCNC(=N)N)cc3)c2)cc1 [Compound 157] | 322 nM | > 100 µM | > 100 µM | 299 µg/mL (≈ 520 µM) | 244 nM |  | 
CC(C)N1CCc2ccc(NC(=O)c3cc(C(=O)Nc4ccc5c(c4)CCN(C(C)C)CC5)ncn3)cc2CC1 [Compound 147] | 696 nM | > 100 µM | > 100 µM | 560 µg/mL (≈ 1040 µM) | 829 nM |  | 
N=C(N)NCCCOc1cc(OCCCNC(=N)N)c(-c2ccc(C(F)(F)F)cc2)cc1-c1ccc(C(F)(F)F)cc1 [Compound 144] |  | 90 µM | 27 µM | 3 µg/mL (≈ 5.03 µM) | 247 nM |  | 
NCCOc1c(N)cc(C(F)(F)F)cc1NC(=O)c1cccc(C(=O)Nc2cc(C(F)(F)F)cc(N)c2OCCN)c1 [Compound 112] |  |  |  |  |  | 653 nM | 993 nM
N=C(N)NCCCCOc1cc(OCCCCNC(=N)N)c(C(F)(F)F)cc1NC(=O)c1cc(C(=O)Nc2cc(C(F)(F)F)c(OCCCCNC(=N)N)cc2OCCCCNC(=N)N)ncn1 [Compound 104] | 200 nM | 39 µM | 25 µM | 2 µg/mL (≈ 2.06 µM) | 301 nM |  | 
CC(C)(C)c1cc(NC(=O)CCCCNS(C)(=O)=O)c(SCCNS(C)(=O)=O)c(NC(=O)c2cccc(C(=O)Nc3cc(C(C)(C)C)cc(NC(=O)CCCCNS(C)(=O)=O)c3SCCNS(C)(=O)=O)c2)c1 [Compound 107] | 295 nM | > 1000 µM | > 1000 µM | > 1000 µg/mL | 484 nM |  | 
NC1CCC(N2CCc3ccc(NC(=O)c4cc(C(=O)Nc5ccc6c(c5)CCN(C5CCC(N)CC5)CC6)ncn4)cc3CC2)CC1 (stereo not drawn) [Compound 148] |  | > 1000 µM | > 1000 µM | > 1000 µg/mL | 81 nM |  | 
CC(C)(C)c1cc(N)c(SCCCC(=N)N)c(NC(=O)c2cccc(C(=O)Nc3cc(C(C)(C)C)cc(N)c3SCCCC(=N)N)c2)c1 [Compound 113] |  |  |  |  |  | 668 nM | 611 nM
N#Cc1cccc(C(=O)Nc2cc(C(F)(F)F)cc(NC(=O)c3cc(C(=O)Nc4cc(C(F)(F)F)cc(NC(=O)c5cccc(C#N)c5)c4SCCN)ncn3)c2SCCN)c1 [Compound 101] | 47 nM | 27 µM | 74.4 µM | 583 µg/mL (≈ 653 µM) | 113 nM |  | 
N=C(N)NCCCCOc1cc(OCCCCNC(=N)N)c(C(F)(F)F)cc1NC(=O)Nc1ccc(NC(=O)Nc2cc(C(F)(F)F)c(OCCCCNC(=N)N)cc2OCCCCNC(=N)N)cc1 [Compound 167] | 724 nM | 60 µM | 37 µM | 7 µg/mL (≈ 7.01 µM) | 951 nM |  | 
N=C(N)N1CCC(Oc2cc(OC3CCN(C(=N)N)C3)c(C(F)(F)F)cc2NC(=O)c2cc(C(=O)Nc3cc(C(F)(F)F)c(O[C@@H]4CCN(C(=N)N)C4)cc3O[C@@H]3CCN(C(=N)N)C3)ncn2)C1 (stereo partly drawn) [Compound 111] | 610 nM | 84 µM | 32 µM | 65 µg/mL (≈ 67.5 µM) | 431 nM |  | 
Fc1cc(NC2CCNCC2)cc(Oc2ccc(Oc3cc(F)cc(NC4CCNCC4)c3)cc2)c1 [Compound 164] | 610 nM | 78 µM | 23 µM | 15 µg/mL (≈ 30.3 µM) | 980 nM |  | 
CC(=O)NCCSc1c(NC(=O)CCCCNC(=N)N)cc(Br)cc1NC(=O)c1cc(C(=O)Nc2cc(Br)cc(NC(=O)CCCCNC(=N)N)c2SCCNC(C)=O)ncn1 [Compound 169] | 317 nM |  |  | 210 µg/mL (≈ 205 µM) | 150 nM |  | 
